Results reported in patent US10874621B2, “Cationic nanoparticles for co-delivery of nucleic acids and therapeutic agents” (The Brigham and Women's Hospital, Inc., priority 2013, dated 2020).

Experiment: Solubility of compound 1 in organic solvents
Assay type: physicochemical
Details: organic solvents like DMSO and dichloromethane (DCM)

Substance: cis,cis,trans-[Pt(NH3)2Cl2(OOC(CH2)8CH3)2] [Compound 1]
- solubility in organic solvents: sufficiently soluble
